ChEMBL document CHEMBL1153449, “A new synthesis and an antiviral assessment of the 4'-fluoro derivative of 4'-deoxy-5'-noraristeromycin” (Bioorg Med Chem, 2009)
Converted amounts (≈) assume the structure as drawn. The source made the active and inactive calls. The calls are words filed in the database; no cut-off is given here.

Columns and labels:
Measles morbillivirus [1] = assay: Antiviral activity against Measles virus; assay type: functional, organism-based
Vaccinia virus = assay: Antiviral activity against Vaccinia virus; assay type: functional, organism-based; details: Orthopoxvirus vaccinia
Measles morbillivirus [2] = assay: Antiviral activity against Measles virus by neutral red assay; assay type: functional, organism-based
[3] = Cytotoxicity against african green monkey CV1 cells; assay type: cell-based; details: Chlorocebus aethiops, CV-1
Cytomegalovirus = assay: Antiviral activity against Cytomegalovirus; assay type: functional, organism-based
Cowpox virus = assay: Antiviral activity against Cowpox virus; assay type: functional, organism-based

Row | SMILES | IC50 (Measles morbillivirus [1]) [µg/mL] | Activity (Vaccinia virus) | IC50 (Measles morbillivirus [2]) [µg/mL] | IC50 [3] [µg/mL] | Activity (Cytomegalovirus) | Activity (Cowpox virus)
1 | Nc1ncnc2c1ncn2[C@@H]1C[C@H](F)[C@@H](O)[C@H]1O | 14 (≈ 55.3 µM) | inactive | 1.2 (≈ 4.74 µM) | 21 (≈ 82.9 µM) | inactive | inactive
2 | Nc1ncnc2c1ncn2[C@@H]1CC(F)(F)[C@@H](O)[C@H]1O |  | Active |  |  | Active | Active
